Measured values taken from a compilation of properties of binary mixtures (doi:10.1016/j.molliq.2016.02.091).

Test: xn = mol fraction of the nth substance listed
Conditions: 101 kPa

CC[n+]1ccn(C)c1.COS(=O)(=O)[O-] + CC(=O)O
speed of sound [m/s]
Conditions	x2 = 0	x2 = 0.1669	x2 = 0.3003	x2 = 0.5004	x2 = 0.6432	x2 = 0.7503	x2 = 0.8336	x2 = 0.9001	x2 = 0.9546	x2 = 0.9783
298.15 K	1758	1713	1665	1593	1501	1419	–	1274	1202	–
303.15 K	1745	1702	1650	1580	–	1403	–	1258	–	1151
308.15 K	1734	–	1641	1568	1473	1391	1318	1246	1172	1136
313.15 K	1723	1681	1624	–	1456	1371	1298	1225	1152	1116

CC[n+]1ccn(C)c1.COS(=O)(=O)[O-] + CCC(=O)O
speed of sound [m/s]
Conditions	x2 = 0	x2 = 0.1332	x2 = 0.2478	x2 = 0.4345	x2 = 0.5804	x2 = 0.6975	x2 = 0.7935	x2 = 0.8737	x2 = 0.9417	x2 = 0.9719
298.15 K	1758	1715	1669	1590	1509	1430	1356	1285	1215	–
303.15 K	1745	1701	1656	1576	1493	1413	1339	1267	1197	1162
308.15 K	1734	1689	1642	1563	1478	1396	1321	1249	1178	1143
313.15 K	1723	1678	1630	1549	1462	1380	1304	1231	1160	–

CC(=O)O + CC[n+]1ccn(C)c1.COS(=O)(=O)[O-]
x1 = 1
Conditions	speed of sound [m/s]
298.15 K	1133
303.15 K	1117
308.15 K	1102
313.15 K	1082

CCC(=O)O + CC[n+]1ccn(C)c1.COS(=O)(=O)[O-]
x1 = 1
Conditions	speed of sound [m/s]
303.15 K	1129
308.15 K	1110
